Assay results as given in patent US20200368247A1, “CENICRIVIROC FOR THE TREATMENT OF FIBROSIS” (Tobira Therapeutics, Inc., priority 2014, published 2020).

Assay: Study 202 treatment-emergent laboratory abnormalities (DAIDS grade)
Format: in vivo, human
Conditions: for Phosphate decreased, Grade 3 / Phosphate decreased, Grade 4 / AST increased, Grade 4 / Any Grade 3 or Grade 4 laboratory abnormality / Any Grade 4 laboratory abnormality / Aspartate aminotransferase (AST) increased (Grade 3 or 4) / CPK increased, Grade 4 / Creatine phosphokinase (CPK) increased (Grade 3 or 4) / Fibrinogen decreased (Grade 3 or 4) / Fibrinogen decreased, Grade 3 / Fibrinogen decreased, Grade 4 / Hemoglobin decreased (Grade 3 or 4) / Hemoglobin decreased, Grade 3 / Hemoglobin decreased, Grade 4 / Neutrophils decreased (Grade 3 or 4) / Neutrophils decreased, Grade 3 / Neutrophils decreased, Grade 4 / Phosphate decreased (Grade 3 or 4) / AST increased, Grade 3 / Any Grade 3 laboratory abnormality / CPK increased, Grade 3: through Week 48
Description: The 12th subject (Subject 42001) had 2 consecutive CPK elevations (Grade 3 followed by Grade 4) that returned to normal values while continuing treatment at a subsequent visit. None of the CPK elevations were associated with clinical symptoms; no subjects discontinued due to CPK elevations and there were no differences in AEs related to musculoskeletal disorders between the CVC and EFV arms.
The number of subjects with graded treatment-emergent laboratory abnormalities in selected liver parameters of interest is shown in Table 34. No Grade 4 ALT or AST elevations were observed. Except for one Grade 3 AST elevation, all ALT and AST elevations were Grade 1 or Grade 2. […] All abnormalities in bilirubin were Grade 1 or Grade 2. […]

[1] = All CVC (N = 115), EFV (N = 28)

## CCCCOCCOc1ccc(-c2ccc3c(c2)/C=C(/C(=O)Nc2ccc([S@@+]([O-])Cc4cncn4CCC)cc2)CCCN3CC(C)C)cc1 [CVC, (S)-8-[4-(2-Butoxyethoxy)phenyl]-1-isobutyl-N-(4-{[(1-propyl-1H-imidazol-5-yl)methyl]sulfinyl}phenyl)-1,2,3,4-tetrahydro-1-benzazocine-5-carboxamide]
[1]
  Phosphate decreased, Grade 3: 4 (3%) n (%)
  Phosphate decreased, Grade 4: 0 n (%)
CVC 100 mg
  Any graded (Grade 1-4) laboratory abnormality, %: 88%
  Worst Grade 1 laboratory abnormality, %: 36%
  Worst Grade 2 laboratory abnormality, %: 40%
  Worst Grade 3 laboratory abnormality, %: 7%
  Worst Grade 4 laboratory abnormality, %: 5%
CVC 100 mg (N = 38)
  AST increased, Grade 4: 0 n (%)
  Any Grade 3 or Grade 4 laboratory abnormality: 7 (12%) n (%)
  Any Grade 4 laboratory abnormality: 3 (5%) n (%)
  Aspartate aminotransferase (AST) increased (Grade 3 or 4): 1 (2%) n (%)
  CPK increased, Grade 4: 1 (2%) n (%)
  Creatine phosphokinase (CPK) increased (Grade 3 or 4): 3 (5%) n (%)
  Fibrinogen decreased (Grade 3 or 4): 0 n (%)
  Fibrinogen decreased, Grade 3: 0 n (%)
  Fibrinogen decreased, Grade 4: 0 n (%)
  Hemoglobin decreased (Grade 3 or 4): 1 (2%) n (%)
  Hemoglobin decreased, Grade 3: 0 n (%)
  Hemoglobin decreased, Grade 4: 1 (2%) n (%)
  Neutrophils decreased (Grade 3 or 4): 2 (3%) n (%)
  Neutrophils decreased, Grade 3: 2 (3%) n (%)
  Neutrophils decreased, Grade 4: 0 n (%)
  Phosphate decreased (Grade 3 or 4): 2 (3%) n (%)
  Phosphate decreased, Grade 3: 2 (3%) n (%)
  Phosphate decreased, Grade 4: 0 n (%)
CVC 100 mg (N = 58)
  ALT abnormality, worst Grade 1: 4 (7%) n (%)
  ALT abnormality, worst Grade 2: 3 (5%) n (%)
  ALT abnormality, worst Grade 3: 0 n (%)
  ALT abnormality, worst Grade 4: 0 n (%)
  AST abnormality, worst Grade 1: 8 (14%) n (%)
  AST abnormality, worst Grade 2: 2 (3%) n (%)
  AST abnormality, worst Grade 3: 1 (2%) n (%)
  AST abnormality, worst Grade 4: 0 n (%)
  Alanine aminotransferase (ALT) abnormality, any worst grade: 7 (12%) n (%)
  Aspartate aminotransferase (AST) abnormality, any worst grade: 11 (19%) n (%)
  Bilirubin abnormality, any worst grade: 4 (7%) n (%)
  Bilirubin abnormality, worst Grade 1: 1 (2%) n (%)
  Bilirubin abnormality, worst Grade 2: 3 (5%) n (%)
  Bilirubin abnormality, worst Grade 3: 0 n (%)
  Bilirubin abnormality, worst Grade 4: 0 n (%)
  AST increased, Grade 3: 1 (2%) n (%)
  Any Grade 3 laboratory abnormality: 4 (7%) n (%)
  CPK increased, Grade 3: 2 (3%) n (%)
CVC 200 mg
  Any graded (Grade 1-4) laboratory abnormality, %: 96%
  Worst Grade 1 laboratory abnormality, %: 28%
  Worst Grade 2 laboratory abnormality, %: 47%
  Worst Grade 3 laboratory abnormality, %: 16%
  Worst Grade 4 laboratory abnormality, %: 5%
CVC 200 mg (N = 57)
  ALT abnormality, worst Grade 1: 6 (11%) n (%)
  ALT abnormality, worst Grade 2: 2 (4%) n (%)
  ALT abnormality, worst Grade 3: 0 n (%)
  ALT abnormality, worst Grade 4: 0 n (%)
  AST abnormality, worst Grade 1: 6 (11%) n (%)
  AST abnormality, worst Grade 2: 4 (7%) n (%)
  AST abnormality, worst Grade 3: 0 n (%)
  AST abnormality, worst Grade 4: 0 n (%)
  Alanine aminotransferase (ALT) abnormality, any worst grade: 8 (14%) n (%)
  Aspartate aminotransferase (AST) abnormality, any worst grade: 10 (18%) n (%)
  Bilirubin abnormality, any worst grade: 3 (5%) n (%)
  Bilirubin abnormality, worst Grade 1: 2 (4%) n (%)
  Bilirubin abnormality, worst Grade 2: 1 (2%) n (%)
  Bilirubin abnormality, worst Grade 3: 0 n (%)
  Bilirubin abnormality, worst Grade 4: 0 n (%)
  AST increased, Grade 3: 0 n (%)
  AST increased, Grade 4: 0 n (%)
  Any Grade 3 laboratory abnormality: 9 (16%) n (%)
  Any Grade 3 or Grade 4 laboratory abnormality: 12 (21%) n (%)
  Any Grade 4 laboratory abnormality: 3 (5%) n (%)
  Aspartate aminotransferase (AST) increased (Grade 3 or 4): 0 n (%)
  CPK increased, Grade 3: 6 (11%) n (%)
  CPK increased, Grade 4: 3 (5%) n (%)
  Creatine phosphokinase (CPK) increased (Grade 3 or 4): 9 (16%) n (%)
  Fibrinogen decreased (Grade 3 or 4): 2 (4%) n (%)
  Fibrinogen decreased, Grade 3: 2 (4%) n (%)
  Fibrinogen decreased, Grade 4: 0 n (%)
  Hemoglobin decreased (Grade 3 or 4): 0 n (%)
  Hemoglobin decreased, Grade 3: 0 n (%)
  Hemoglobin decreased, Grade 4: 0 n (%)
  Neutrophils decreased (Grade 3 or 4): 0 n (%)
  Neutrophils decreased, Grade 3: 0 n (%)
  Neutrophils decreased, Grade 4: 0 n (%)
  Phosphate decreased (Grade 3 or 4): 2 (4%) n (%)
  Phosphate decreased, Grade 3: 2 (4%) n (%)
  Phosphate decreased, Grade 4: 0 n (%)
